# From US9688596B2, “Synthesis and biological activity of 2-methylene analogs of calcitriol and related compounds” (Wisconsin Alumni Research Foundation, priority 2015, dated 2017)
# “Also recorded” adds a separate entry of the source.
# Columns and labels:
# [1] = system: human promyelocytic HL-60 cells; test: HL-60 differentiation (NBT reduction); assay type: cell-based; settings: for HL-60 differentiation ED50 Ratio: average ratio of the 1α,25-(OH)2D3 ED50 to the ED50 for the analogue, 50% maturation, NBT reduction; for ability to elicit differentiation of HL-60 cells into monocytes (in words): comparator (2MD)
# [2] = system: 24-hydroxylase (CYP-24) promoter; test: 24-hydroxylase transcription (luciferase reporter in rat osteosarcoma cells); assay type: cell-based; settings: for 24OHase transcription ED50 Ratio: average ratio of the 1α,25-(OH)2D3 ED50 to the ED50 for the analogue, luciferase activity; for transcriptional potency (in words): compared with 1α,25-(OH)2D3 (1)
# Excerpt: The activity of the synthesized vitamins in inducing transcription of vitamin D target gene was examined using the 24-hydroxylase (CYP-24) promoter.
# [3] = earlier work; cited from earlier work
# [4] = biological target: T1, full-length recombinant rat vitamin D receptor (Rattus norvegicus, UniProt P13053); test: Competitive binding to the vitamin D receptor; settings: for VDR Binding Ki Ratio: average ratio of the 1α,25-(OH)2D3 Ki to the Ki for the analogue, radiolabeled 1α,25-(OH)2D3 at 1 nM, Kd 0.2 nM; for VDR binding ability (in words): comparator (1 or 3)
# T1 sequence (P13053 1-423): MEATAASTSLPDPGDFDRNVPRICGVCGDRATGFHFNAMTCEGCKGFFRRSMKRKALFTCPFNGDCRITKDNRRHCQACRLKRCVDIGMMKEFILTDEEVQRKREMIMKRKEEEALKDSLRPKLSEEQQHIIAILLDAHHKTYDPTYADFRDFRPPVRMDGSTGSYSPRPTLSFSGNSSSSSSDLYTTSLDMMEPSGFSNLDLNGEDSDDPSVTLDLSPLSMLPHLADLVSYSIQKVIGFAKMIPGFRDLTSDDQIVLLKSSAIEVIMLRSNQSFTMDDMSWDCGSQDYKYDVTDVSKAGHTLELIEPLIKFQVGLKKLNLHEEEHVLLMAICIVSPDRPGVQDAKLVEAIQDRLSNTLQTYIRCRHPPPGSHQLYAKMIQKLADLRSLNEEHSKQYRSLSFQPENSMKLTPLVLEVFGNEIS
# Experimental: In the first competitive binding assay, the affinity of vitamins to the full-length recombinant rat receptor was evaluated and compared to 1α,25-(OH)2D3 (1) and 2MD (3).
# The Ki values are derived from the dose-response curves and represent the inhibition constant when radiolabeled 1α,25-(OH)2D3 is present at 1 nM and a Kd of 0.2 nM is used. The numbers shown in the Table are expressed as the average ratio of the 1α,25-(OH)2D3 Ki to the Ki for the analogue. ^bInduction of differentiation of HL-60 promyelocytes to monocytes by 1α,25-(OH)2D3 (1) and the synthesized vitamin D analogues. Differentiation state was determined by measuring the percentage of cells reducing nitro blue tetrazolium (NBT). The experiment was repeated in duplicate two times. […] The numbers shown in the Table are expressed as the average ratio of the 1α,25-(OH)2D3 ED50 to the ED50 for the analogue. ^cTranscriptional assay in rat osteosarcoma cells stably transfected with a 24-hydroxylase gene reporter plasmid. […] The numbers shown in the Table are expressed as the average ratio of the 1α,25-(OH)2D3 ED50 to the ED50 for the analogue.
# [5] = compared with 1; cited from earlier work
# [6] = cited from earlier work
# bone formation = settings: cited from earlier work
# [7] = ovariectomized (OVX) rat; cited from earlier work
# [8] = clinical trial; cited from earlier work
# [9] = Bone calcium mobilization (serum calcium); assay type: in vivo, rat; settings: rats, four consecutive intraperitoneal doses
# Experimental: (§1) Male, weanling Sprague-Dawley rats were purchased from Harlan (Indianapolis, Ind.). The animals were group housed and placed on Diet 11 (0.47% Ca)+AEK oil for one week followed by Diet 11 (0.02% Ca)+AEK oil for 3 weeks. The rats were then switched to a diet containing 0.47% Ca^xxiii for one week followed by two weeks on a diet containing 0.02% Ca. Dose administration began during the last week on 0.02% Ca diet. Four consecutive intraperitoneal doses were given approximately 24 hours apart. Twenty four hours after the last dose, blood was collected from the severed neck and the concentration of serum calcium determined as a measure of bone calcium mobilization. The first 10 cm of the intestine was also collected for the intestinal calcium transport analysis using the everted gut sac method.^25
# [10] = Intestinal calcium transport (everted gut sac); assay type: in vivo, rat; settings: rats, four consecutive intraperitoneal doses
# Experimental: as §1
# [11] = listed as 2-methylene calcitriol
Structure (SMILES),24OHase transcription ED50 Ratio [2],VDR Binding Ki Ratio [4],transcriptional potency (in words) [2],VDR binding ability (in words) [4],transcriptional activity decreased compared with 3 (2MD) ([2]; compared with 3),"affinity to the receptor, higher than natural hormone 1 ([4]; compared to 1α,25-(OH)2D3 (1)) [fold]",HL-60 differentiation ED50 Ratio [1],calcemic potency / in vivo calcemic activity [3],activity in the bone tissue higher than 1 [5],activity in the intestine compared with 1 [6],bone formation in vitro (bone formation),bone formation in OVX rat model [7],bone turnover in postmenopausal women [8],bone calcium mobilization / potency in raising serum calcium (in words) [9],"bone calcium mobilization / potency in raising serum calcium (in words) [9, 11]",intestinal calcium transport activity (in words) [10],"intestinal calcium transport activity (in words) [10, 11]",ability to elicit differentiation of HL-60 cells into monocytes (in words) [1]
"C=C1[C@H](O)CC(=C/C=C2\CCC[C@]3(C)[C@@H]([C@H](C)CCCC(C)(C)O)CC[C@@H]23)C[C@H]1O [Compound 2, reference compound]",1,1,,,,,1,significantly increased calcemic potency,,,,,,,,,,
"C=C1[C@H](O)CC(=C/C=C2\CCC[C@]3(C)[C@@H](C(C)CCCC(C)(C)O)CC[C@@H]23)C[C@H]1O (stereo partly drawn) [Compound 3, (20S)-1α,25-dihydroxy-2-methylene-19-nor vitamin D3]",29,1,,,,,25,,ca. 30 times,similar,strongly stimulate bone formation,strongly stimulate bone formation,increase bone turnover,,,,,
"C=C1/C(=C\C=C2/CCC[C@]3(C)[C@@H]([C@H](C)CCCC(C)(C)O)CC[C@@H]23)C[C@@H](O)C(=C)[C@@H]1O [Compound 8, 1α,25-dihydroxy-2-methylene-vitamin D3]",1,1.4,"same transcriptional potency as 1α,25-(OH)2D3 (1)",almost as effectively as the natural hormone 1,,,0.7,,,,,,,highest potency in raising serum calcium; also recorded: considerably higher potency,almost as active as 2MD in the bone,Much higher potency on intestine; also recorded: considerably higher potency; also recorded: more potent than 1 and 3,more active in intestine,
"C=C1/C(=C\C=C2/CCC[C@]3(C)[C@@H]([C@@H](C)CCCC(C)(C)O)CC[C@@H]23)C[C@@H](O)C(=C)[C@@H]1O [Compound 9, (20S)-1α,25-dihydroxy-2-methylene-vitamin D3]",10,1.1,most pronounced activity,almost identical,three,,29,,,,,,,highest potency in raising serum calcium; also recorded: slightly lower than that of 3; also recorded: ca. one order of magnitude higher compared to calcitriol,,Much higher potency on intestine; also recorded: more potent than 1 and 3,,highest ability to elicit cellular differentiation; also recorded: almost identical
"C=C1/C(=C\C=C2/CCC[C@]3(C)[C@@H]([C@H](C)CCCC(C)C)CC[C@@H]23)C[C@@H](O)C(=C)[C@@H]1O [Compound 10, 1α-hydroxy-2-methylene-vitamin D3]",,,decreased by one order of magnitude,decreased by two orders of magnitude,,,0.07,,,,,,,less active but still more calcemic than calcitriol; also recorded: Strong calcemic activity,,,,
"C=C1/C(=C\C=C2/CCC[C@]3(C)[C@@H]([C@@H](C)CCCC(C)C)CC[C@@H]23)C[C@@H](O)C(=C)[C@@H]1O [Compound 11, (20S)-1α-hydroxy-2-methylene-vitamin D3]",,,decreased by one order of magnitude,decreased by two orders of magnitude,,,0.7,,,,,,,less active but still more calcemic than calcitriol; also recorded: Strong calcemic activity,,,,
"C=C1/C(=C/C=C2\CCC[C@]3(C)[C@@H]([C@H](C)CCCC(C)(C)O)CC[C@@H]23)C[C@@H](O)C(=C)[C@@H]1O [Compound 12, (5E)-1α,25-dihydroxy-2-methylene-vitamin D3]",1,2.5,"same transcriptional potency as 1α,25-(OH)2D3 (1)",,,2.5,0.4,,,,,,,significantly decreased activity in bone,,,,
"C=C1/C(=C/C=C2\CCC[C@]3(C)[C@@H]([C@@H](C)CCCC(C)(C)O)CC[C@@H]23)C[C@@H](O)C(=C)[C@@H]1O [Compound 13, (5E,20S)-1α,25-dihydroxy-2-methylene-vitamin D3]",5,1.1,most pronounced activity,almost identical,,,20,,,,,,,significantly decreased activity in bone,,,,highest ability to elicit cellular differentiation; also recorded: almost identical
